Data: the supplement of paper PMC10307832

These cell lines were tested with CC1=C(C(=NN1)C)CC2=C(C3=C(S2)N(C(=O)N(C3=O)C)CC(C)C)C(=O)N4C[C@@H](CO4)O + COc1cccc2cc(-c3nc([C@H]4CC[C@H](C(=O)O)CC4)n4ncnc(N)c34)[nH]c12 [OSI-027] (partner 0.5 µM) (assay: relative viability (nuclei count vs DMSO), 5 days (fraction); higher = more cells survive). Conditions: first compound 0.25 µM.
In short: (§1)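 Lung cancer cell lines were pin-tool dosed in 1536-well plates on the day after seeding, with either a lone drug or a fixed anchor-drug dose plus five library-drug doses (not always all listed) in √10 steps. Nuclei were counted on 4× images after 5 days. Relative viability is the ratio of treated-well to vehicle-well nuclei counts, with each value a median of duplicate plates.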

Cell Line	relative viability
NCI-H1793	0.231
PC-14	1.16

The cell lines below were run with CC1=C(C(=NN1)C)CC2=C(C3=C(S2)N(C(=O)N(C3=O)C)CC(C)C)C(=O)N4C[C@@H](CO4)O + N=C(N)NC(=N)NCCc1ccccc1 [Phenformin] (partner 250 µM) in the same assay as above. Conditions: first compound 0.0025 µM.
In short: as §1

Cell Line	relative viability
HARA	0.365
HCC-78	0.795
NCI-H322M	0.825
LCLC-97TM1	0.483
NCI-H2009	0.487
A-427	0.301
NCI-H441	0.902
NCI-H661	0.286
NCI-H1734	0.349
NCI-H460	0.526
NCI-H2347	0.455
SK-LU-1	0.338
NCI-H1395	0.336
201T	0.468
NCI-H1915	0.365
HCC-827	0.379

Cell Line	relative viability
LXF-289	0.525
NCI-H23	0.794
NCI-H647	0.655
CAL-12T	0.551
NCI-H1651	0.374
EPLC-272H	0.362
NCI-H2228	0.366
NCI-H1792	0.259
NCI-H1355	0.493
NCI-H3122	0.385
NCI-H1437	0.318
NCI-H1755	0.637
NCI-H2023	0.382
HCC-15	0.486
NCI-H1793	0.211
PC-14	0.548

Same assay, conditions: first compound 0.007906 µM

Cell Line	relative viability
HARA	0.378
HCC-78	0.842
NCI-H322M	0.673
LCLC-97TM1	0.432
NCI-H2009	0.484
A-427	0.264
NCI-H441	0.943
NCI-H661	0.304
NCI-H1734	0.218
NCI-H460	0.586
NCI-H2347	0.429
SK-LU-1	0.234
NCI-H1395	0.316
201T	0.383
NCI-H1915	0.329
HCC-827	0.408

Cell Line	relative viability
LXF-289	0.52
NCI-H23	0.858
NCI-H647	0.369
CAL-12T	0.627
NCI-H1651	0.214
EPLC-272H	0.272
NCI-H2228	0.377
NCI-H1792	0.173
NCI-H1355	0.473
NCI-H3122	0.365
NCI-H1437	0.313
NCI-H1755	0.607
NCI-H2023	0.437
HCC-15	0.49
NCI-H1793	0.213
PC-14	0.585

Same assay, conditions: first compound 0.025 µM

Cell Line	relative viability
HARA	0.309
HCC-78	0.574
NCI-H322M	0.793
LCLC-97TM1	0.429
NCI-H2009	0.455
A-427	0.24
NCI-H441	0.799
NCI-H661	0.27
NCI-H1734	0.168
NCI-H460	0.491
NCI-H2347	0.295
SK-LU-1	0.191
NCI-H1395	0.298
201T	0.426
NCI-H1915	0.358
HCC-827	0.425

Cell Line	relative viability
LXF-289	0.532
NCI-H23	0.839
NCI-H647	0.393
CAL-12T	0.544
NCI-H1651	0.259
EPLC-272H	0.281
NCI-H2228	0.327
NCI-H1792	0.127
NCI-H1355	0.429
NCI-H3122	0.364
NCI-H1437	0.301
NCI-H1755	0.589
NCI-H2023	0.361
HCC-15	0.46
NCI-H1793	0.138
PC-14	0.317

Same assay, conditions: first compound 0.07906 µM

Cell Line	relative viability
HARA	0.234
HCC-78	0.671
NCI-H322M	0.93
LCLC-97TM1	0.477
NCI-H2009	0.557
A-427	0.375
NCI-H441	0.847
NCI-H661	0.22
NCI-H1734	0.164
NCI-H460	0.553
NCI-H2347	0.275
SK-LU-1	0.202
NCI-H1395	0.314
201T	0.472
NCI-H1915	0.345
HCC-827	0.407

Cell Line	relative viability
LXF-289	0.537
NCI-H23	0.804
NCI-H647	0.555
CAL-12T	0.629
NCI-H1651	0.239
EPLC-272H	0.298
NCI-H2228	0.403
NCI-H1792	0.172
NCI-H1355	0.481
NCI-H3122	0.392
NCI-H1437	0.297
NCI-H1755	0.583
NCI-H2023	0.431
HCC-15	0.482
NCI-H1793	0.138
PC-14	0.586

Same assay, conditions: first compound 0.25 µM

Cell Line	relative viability
HARA	0.246
HCC-78	0.575
NCI-H322M	0.829
LCLC-97TM1	0.51
NCI-H2009	0.503
A-427	0.349
NCI-H441	0.865
NCI-H661	0.277
NCI-H1734	0.156
NCI-H460	0.515
NCI-H2347	0.264
SK-LU-1	0.223
NCI-H1395	0.312
201T	0.426
NCI-H1915	0.357
HCC-827	0.399

Cell Line	relative viability
LXF-289	0.556
NCI-H23	0.774
NCI-H647	0.53
CAL-12T	0.575
NCI-H1651	0.261
EPLC-272H	0.361
NCI-H2228	0.247
NCI-H1792	0.155
NCI-H1355	0.453
NCI-H3122	0.375
NCI-H1437	0.306
NCI-H1755	0.622
NCI-H2023	0.412
HCC-15	0.518
NCI-H1793	0.135
PC-14	0.74

Each cell line was assayed with Cc1ccccc1C(C(=O)NC1CCCCC1)N(C(=O)Cn1ccnc1C)c1cccc(F)c1 [IDH-C35] + N=C(N)NC(=N)NCCc1ccccc1 [Phenformin] (partner 250 µM) in the same assay as above. Conditions: first compound 0.08 µM.
In short: as §1

Cell Line	relative viability
HARA	0.522
HCC-78	0.608
NCI-H322M	0.761
LCLC-97TM1	0.388
NCI-H2009	0.56
A-427	0.359
NCI-H441	1.07
NCI-H661	0.305
NCI-H1734	0.402
NCI-H460	0.547
NCI-H2347	0.421
SK-LU-1	0.604
NCI-H1395	0.45
201T	0.469
NCI-H1915	0.364
HCC-827	0.425

Cell Line	relative viability
LXF-289	0.543
NCI-H23	0.824
NCI-H647	0.425
CAL-12T	0.546
NCI-H1651	0.338
EPLC-272H	0.33
NCI-H2228	0.255
NCI-H1792	0.257
NCI-H1355	0.52
NCI-H3122	0.391
NCI-H1437	0.334
NCI-H1755	0.605
NCI-H2023	0.405
HCC-15	0.521
NCI-H1793	0.399
PC-14	0.53

Same assay, conditions: first compound 0.253 µM

Cell Line	relative viability
HARA	0.461
HCC-78	0.682
NCI-H322M	0.798
LCLC-97TM1	0.453
NCI-H2009	0.498
A-427	0.3
NCI-H441	0.866
NCI-H661	0.275
NCI-H1734	0.449
NCI-H460	0.527
NCI-H2347	0.516
SK-LU-1	0.541
NCI-H1395	0.477
201T	0.431
NCI-H1915	0.37
HCC-827	0.348

Cell Line	relative viability
LXF-289	0.507
NCI-H23	0.746
NCI-H647	0.446
CAL-12T	0.618
NCI-H1651	0.292
EPLC-272H	0.275
NCI-H2228	0.374
NCI-H1792	0.258
NCI-H1355	0.438
NCI-H3122	0.372
NCI-H1437	0.288
NCI-H1755	0.614
NCI-H2023	0.376
HCC-15	0.464
NCI-H1793	0.418
PC-14	0.611

Same assay, conditions: first compound 0.8 µM

Cell Line	relative viability
HARA	0.435
HCC-78	0.644
NCI-H322M	0.772
LCLC-97TM1	0.465
NCI-H2009	0.521
A-427	0.338
NCI-H441	0.72
NCI-H661	0.307
NCI-H1734	0.4
NCI-H460	0.502
NCI-H2347	0.362
SK-LU-1	0.558
NCI-H1395	0.498
201T	0.436
NCI-H1915	0.382
HCC-827	0.384

Cell Line	relative viability
LXF-289	0.524
NCI-H23	0.788
NCI-H647	0.626
CAL-12T	0.556
NCI-H1651	0.362
EPLC-272H	0.314
NCI-H2228	0.436
NCI-H1792	0.244
NCI-H1355	0.424
NCI-H3122	0.4
NCI-H1437	0.336
NCI-H1755	0.65
NCI-H2023	0.404
HCC-15	0.501
NCI-H1793	0.399
PC-14	0.642

Same assay, conditions: first compound 2.53 µM

Cell Line	relative viability
HCC-78	0.798
NCI-H322M	0.749
LCLC-97TM1	0.407
NCI-H2009	0.451
A-427	0.314
NCI-H441	1.01
NCI-H661	0.28
NCI-H1734	0.359
NCI-H460	0.488
NCI-H2347	0.474
SK-LU-1	0.628
NCI-H1395	0.396
201T	0.466
NCI-H1915	0.369
HCC-827	0.397
LXF-289	0.508
NCI-H23	0.756
NCI-H647	0.55
CAL-12T	0.589
NCI-H1651	0.344
EPLC-272H	0.294
NCI-H2228	0.417
NCI-H1792	0.483
NCI-H1355	0.466
NCI-H3122	0.376
NCI-H1437	0.322
NCI-H1755	0.639
NCI-H2023	0.41
PC-14	0.434

Same assay, conditions: first compound 8 µM

Cell Line	relative viability
HARA	0.386
HCC-78	0.745
NCI-H322M	0.743
LCLC-97TM1	0.346
NCI-H2009	0.481
A-427	0.312
NCI-H441	0.807
NCI-H661	0.266
NCI-H1734	0.346
NCI-H460	0.531
NCI-H2347	0.241
SK-LU-1	0.527
NCI-H1395	0.44
201T	0.438
NCI-H1915	0.341
HCC-827	0.406

Cell Line	relative viability
LXF-289	0.517
NCI-H23	0.705
NCI-H647	0.491
CAL-12T	0.498
NCI-H1651	0.296
EPLC-272H	0.296
NCI-H2228	0.405
NCI-H1792	0.334
NCI-H1355	0.395
NCI-H3122	0.359
NCI-H1437	0.274
NCI-H1755	0.649
NCI-H2023	0.351
HCC-15	0.45
NCI-H1793	0.337
PC-14	0.662
